Data published in patent US20210238136A1, “AZETIDINE DERIVATIVE, AND PRODRUG THEREOF” (DAIICHI SANKYO COMPANY, LIMITED, priority 2018, published 2021).

Experiments:
mouse acute GVHD model = assay: Mouse acute GVHD model, IFN-γ concentration in plasma; format: in vivo, mouse (BDF1 host, C57BL/6N donor); settings: for effective dose, suppression of IFN-γ in plasma: oral, twice daily from Day 0, plasma on Day 7, significant relative to the Vehicle group
Description: FIG. 2 is a graph showing the effect of the compound of Example 89 in mouse acute GVHD models. The compound of Example 89 was orally administered at 1.5, 5, 15, or 50 mg/kg, BID. The vertical axis is the concentration of interferon gamma (sometimes abbreviated herein as IFN-γ or IFN-g) in blood on day 7 after elicitation in the model.
Effect of Test Substance in Mouse Acute GVHD Model
A mouse acute graft-versus-host disease (GVHD) model was generated in accordance with a previous report (Puliaev R et al. Differential requirement for IFN-gamma in CTL maturation in acute murine graft-versus-host disease. J Immunol. 173, 910-9 (2004)). Splenocytes were prepared from euthanized donor mice (C57BL/6N), suspended in PBS without hemolysis of erythrocytes, and administered to host mice, BDF1 mice, from the tail vein (the number of transfer cells was adjusted to be 7 to 8×10^7 cells/0.2 mL/mouse in every test, and matched between individuals within the same test). In the Normal group, 0.2 mL of PBS was administered in place of the cells. The test substance was crushed in an agate mortar, and then suspended in a 0.5% hydroxypropyl cellulose (HPC) solution to prepare a dosage solution. In the Vehicle group, 0.5% HPC was used as a dosage solution. To the host mice, the dosage solution was forcibly orally administered (0.2 mL/mouse) twice daily with a feeding needle from the morning of Day 0 (cell transfer) to the end of the experiment. The tail vein was cut without anesthesia on Day 7 and a small amount of blood was collected with a hematocrit tube (EDTA). Plasma was collected by centrifugation and IFN-γ concentration in plasma was measured with an αLISA kit (Mouse IFN-γ alphaLISA, PerkinElimer, AL501C). […] For the difference between the Normal group and the Vehicle group, comparison between two groups was performed by Student's t-test. The difference between the Vehicle group and the test substance administration group was analyzed by a parametric multiple-comparison test, Dunnett test.

NZB/W F1 mice = assay: Survival of NZB/W F1 mice that naturally develop SLE-like symptoms and nephritis; format: in vivo, mouse (NZB/W F1); settings: oral from the age of 12 weeks; Example 44 at 30, 100 mg/kg BID; MMF 60 mg/kg QD; Vehicle survival rate 35%
Description: FIG. 4 is a graph showing the effect of the compound of Example 44 in NZB/W F1 mice that naturally develop SLE-like symptoms and nephritis. To NZB/W F1 mice, the compound of Example 44 was orally administered at 30, 100 mg/kg, BID, and MMF was orally administered at 60 mg/kg, QD, starting at the age of 12 weeks. The vertical axis indicates the survival rate and the horizontal axis indicates the period. Both of the Vehicle group and the compound of Example 44 administration group was at N=20, and the MMF administration group was at N=15. The surviving days was analyzed by the Kaplan-Meier method, and the group in which the p-value was 0.001 or less compared to the Vehicle group by the log rank test is shown by ***.
Effect of Compound of Example 44 in NZB/W F1 Mice that Naturally Develop SLE-Like Symptoms and Nephritis
To NZB/W F1 mice that naturally develop SLE-like symptoms and nephritis, test substance was forcibly orally administered (0.2 mL/mouse) twice daily with a feeding needle, starting at the age of 12 weeks. The compound of Example 44 was orally administered at 30, 100 mg/kg, BID, and MMF was orally administered at 60 mg/kg, QD. […] Mice were observed daily, and those that reached a dying state such as weight loss and dyspnea were euthanized, and the survival rate was evaluated. The number of survival days was analyzed by the Kaplan-Meier method and the log rank test was performed. […]

mouse chronic GVH model = assay: Kidney disorder in mouse chronic GVH model, urine protein/creatinine ratio; format: in vivo, mouse (BDF1 host, DBA2 donor); settings: for minimum effective dose / effective dose, urine protein/creatinine ratio: oral, twice daily from Day 4, urine on Day 32, p-value of 0.05 or less relative to the Vehicle group
Description: FIG. 3 is a box plot graph showing the effect of the compound of Example 89 on renal disorder in mouse chronic GVH models. The compound of Example 89 was orally administered at 1.5, 5, 15, or 50 mg/kg, BID, and MMF was orally administered at 30 mg/kg, BID. […] The boxes in the graph represent box plots of the median and the quartile range for each group at N=12. The plots show the values of each individual. Both between the non-elicitation group (Normal group) and the Vehicle group, and between the Vehicle group and the MMF group were compared by the Wilcoxon test (non-parametric, two-group comparison). # means that the p-value is 0.05 or less, and $$ means that the p-value is 0.01 or less, respectively. The Vehicle group and the compound group of Example 89 were analyzed by the Shirley-Williams test (non-parametric, multiple comparisons with dose response). The groups in which the p-value is 0.01 or less and 0.001 or less are shown by ** and ***, respectively.
Effect of Test Substance on Kidney Disorder in Mouse Chronic GVH Model
A mouse chronic graft-versus-host (GVH) model was generated in accordance with a previous report (Via CS. Advances in lupus stemming from the parent-into-F1 model. Trends Immunol. 31, 236-45 (2010)). Splenocytes were prepared from euthanized donor mice (DBA2 mice), suspended in PBS without hemolysis of erythrocytes, and administered to host mice, BDF1 mice, from tail veins (1×10^8 cells/0.2 mL/mouse) at Day 0 and Day 4, twice. In the Normal group, 0.2 mL of PBS was administered in place of the cells. The test substance was crushed in an agate mortar, and then suspended in a 0.5% hydroxypropyl cellulose (HPC) solution to prepare a dosage solution. In the Vehicle group, 0.5% HPC was used as a dosage solution. To the host mice, the dosage solution was forcibly orally administered (0.2 mL/mouse) twice daily with a feeding needle from Day 4 (second cell transfer) to the end of the experiment. Urine was collected on Day 32 under free diet with a metabolic cage. Urine protein concentration was measured with a urine protein test kit (total protein kit microTP test wako, FUJIFILM Wako Pure Chemical Corporation, pyrogallol red method), and urine creatinine concentration was measured using a creatinine test kit (LabAssay™ creatinine, FUJIFILM Wako Pure Chemical Corporation, Jaffe method), and the ratio of urine protein to creatinine was calculated for each individual. […] For the difference between the Normal group and the Vehicle group, the Wilcoxon test (non-parametric, comparison between two groups) was performed, and for the difference between the Vehicle group and the test substance administration group, the analysis was performed by the Shirley-Williams test (non-parametric, multiple comparison with dose response).

CC(OC(=O)N[C@@H](Cc1cccc(S(=O)(=O)N2CC(Oc3ccc(F)cc3)(c3ccccc3)C2)c1)C(=O)O)OC(=O)C(C)(C)C (stereo partly drawn) [Example 44, (2S)-3-(3-((3-(4-Fluorophenoxy)-3-phenylazetidin-1-yl)sulfonyl)phenyl)-2-(((1-(pivaloyloxy)ethoxy)carbonyl)amino)propanoic acid]
effective dose, suppression of IFN-γ in plasma (mouse acute GVHD model): ≥ 10 mg/kg, BID | survival until the end of the experiment (age of 44 weeks) (NZB/W F1 mice): no death was observed

CC(=O)O[C@@H](C)OC(=O)N[C@@H](Cc1cccc(S(=O)(=O)N2CC(Oc3cccc(F)c3)(c3ccccc3)C2)c1)C(=O)O [Example 89, (S)-2-((((R)-1-Acetoxyethoxy)carbonyl)amino)-3-(3-((3-(3-fluorophenoxy)-3-phenylazetidin-1-yl)sulfonyl)phenyl)propanoic acid]
effect on IFN-γ in plasma (mouse acute GVHD model; oral 1.5, 5, 15, or 50 mg/kg BID, Day 7): inhibited IFN-γ in plasma in a dose-dependent manner | effective dose, suppression of IFN-γ in plasma (mouse acute GVHD model): ≥ 1.5 mg/kg, BID | effect on urine protein/creatinine ratio (mouse chronic GVH model; oral 1.5, 5, 15, or 50 mg/kg BID, Day 32): suppressed the urine protein/creatinine ratio in a dose-dependent manner | minimum effective dose / effective dose, urine protein/creatinine ratio (mouse chronic GVH model): 15 mg/kg, BID

C[C@H](OC(=O)N[C@@H](Cc1cccc(S(=O)(=O)N2CC(Oc3cccc(F)c3)(c3ccccc3)C2)c1)C(=O)O)OC(=O)C(C)(C)C [Example 97]
minimum effective dose / effective dose, urine protein/creatinine ratio (mouse chronic GVH model): 15 mg/kg, BID

CC(C)C(=O)O[C@@H](C)OC(=O)N[C@@H](Cc1cccc(S(=O)(=O)N2CC(Oc3ccc(F)cc3)(c3ccccc3)C2)c1)C(=O)O [Example 104, (S)-3-(3-((3-(4-Fluorophenoxy)-3-phenylazetidin-1-yl)sulfonyl)phenyl)-2-((((R)-1-(isobutyryloxy)ethoxy)carbonyl)amino)propanoic acid]
effective dose, suppression of IFN-γ in plasma (mouse acute GVHD model): ≥ 15 mg/kg, BID | minimum effective dose / effective dose, urine protein/creatinine ratio (mouse chronic GVH model): 15 mg/kg, BID

COc1c(C)c2c(c(O)c1C/C=C(\C)CCC(=O)OCCN1CCOCC1)C(=O)OC2 [MMF, mycophenolate mofetil, reference compound]
survival until the end of the experiment (age of 44 weeks) (NZB/W F1 mice): no death was observed
